Measurements taken from patent US20260041093A1, “Ionic Derivatives Of Aromatic Carboxylic Acid For Use As Plant Stimulants, Method For Stimulating Plants And Use Of These Derivatives For Manufacturing Compositions For Stimulating Plants” (FUNDACJA UNIWERSYTETU IM. ADAMA MICKIEWICZA W POZNANIU, priority 2022, published 2026).
Like-named read-outs stand apart in the source and are kept apart here.

Experiments:
TMV [1] = experiment: Protection of tobacco against TMV infected 3 weeks after the last treatment (Example 27); type: in vivo; conditions: infected with TMV 3 weeks after the last treatment
Description: They proceeded as in Example 24, using substances 1-4 at concentrations of 10, 40 and 80 mg/L for treatment, with treated and control plants divided into 3 batches and their leaves infected with the virus 1, 2 and 3 weeks after the last treatment, respectively. […] A similar effect occurred with spraying.

powdery mildew fungus [2] = type: in vivo, tomato; conditions: 80 mg/L, watered twice; 2 weeks after infection
Description: Tomato plants, at the stage of the first pair of developed true leaves, were watered twice with a solution of substance 1-32 at a concentration of 80 mg/L, at a weekly interval. The control was tomato plants watered only with water. […] The suspension was prepared from culture on solid medium. Protection against biotic stress was evaluated by comparing the area of leaves affected by infection.

TMV [3] = experiment: Protection of tobacco against TMV, single spray, comparison with BION (Example 26); type: in vivo, Nicotiana tabacum cv. Xanthi; conditions: sprayed once, infected a week later
Description: Tobacco plants (Nicotiana tabacum) cv. Xanthi at the stage of three developed leaves were sprayed once with solutions of substance 1-5 or BION™ at concentrations of 10, 40, 80 mg/L. A week later, they were mechanically infected with TMV by rubbing the leaves with a square soaked in a suspension of purified virus, with a concentration of about 2 μg/ml. The level of protection against the effects of biotic stress was evaluated by comparing the number of necrotic spots caused by TMV on the leaves of plants treated with substances 1-5 and BION™ and control plants.
A reduction in the number of necrotic spots indicates protection from the effects of the biotic agent on the plant.

[4] = test system: Pseudomonas syringae pv. Tomato (Pst); conditions: watered twice, Pst 10^5, 2 weeks after infection
Description: Tobacco plants at the stage of 3 developed leaves were watered twice, at a weekly interval, with a solution of test substances 1-11 at concentrations of 10, 40, 80 mg/L. The control was tobacco plants watered with water only. One week after the second treatment, a suspension of Pst bacteria at a concentration of 10^5 was spotted into the leaves using an insulin syringe (without a needle). The suspension was prepared from a two-day culture of Pst on solid medium. Protection against biotic stress was evaluated by the proliferation of bacteria in the leaves at the insertion site and the formation of a necrotic spot, compared to the control.
We proceeded as in Example 30, with the effectiveness of protection against biotic stress tested against bacterial cell concentrations raised to about 10^6.

powdery mildew fungus [5] = experiment: Protection of tomato against powdery mildew by spraying (Example 35); type: in vivo, Lycopersicon Esculentum Mill tomato; conditions: 40 mg/l, sprayed twice; 2 weeks after pathogen inoculation
Description: […] The control was tomato plants watered only with water. […] The suspension was prepared from culture on solid medium. Protection against biotic stress was evaluated by comparing the area of leaves affected by infection.
Proceeded in the way as described in Example 34, with the difference that plants were sprayed and not watered.

With “2-ethoxyethyl(trimethyl)ammonium 3-chlorosalicylate” the “% reduction in necrotic spots compared to control” value (“% reduction in necrotic spots” below) (TMV [1]; 10 mg/L) was 26%, the “% reduction in necrotic spots” value (TMV [1]; 40 mg/L) was 26% and the “% reduction in necrotic spots” value (TMV [1]; 80 mg/L) was 30%. The “% reduction in necrotic spots” value (powdery mildew fungus [2]) was 55%.
For “2-hydroxyethyl(tributyl)ammonium 3-chlorosalicylate”, the “% reduction in necrotic spots” value (TMV [3]; 10 mg/L) was 26%, the “% reduction in necrotic spots” value (TMV [3]; 40 mg/L) was 26% and the “% reduction in necrotic spots” value (TMV [3]; 80 mg/L) was 30%. The “% reduction in necrotic spots” value (powdery mildew fungus [2]) was 66%.
In the case of “2-hydroxyethyl(tridecyl)ammonium 3-chlorosalicylate”, the “% reduction in necrotic spots” value (TMV [3]; 10 mg/L) is reported as 25%, the “% reduction in necrotic spots” value (TMV [3]; 40 mg/L) is reported as 46% and the “% reduction in necrotic spots” value (TMV [3]; 80 mg/L) is reported as 65%. For the same compound, the “% reduction in necrotic spots” value (powdery mildew fungus [2]) was 64%.
With “2-hydroxyethyl(tridodecyl)ammonium 3-chlorosalicylate” the “% reduction in necrotic spots” value (TMV [3]; 10 mg/L) was 59%, the “% reduction in necrotic spots” value (TMV [3]; 40 mg/L) was 64% and the “% reduction in necrotic spots” value (TMV [3]; 80 mg/L) was 89%. For the same compound, the “% reduction in necrotic spots” value (powdery mildew fungus [2]) was 47%.
For “2-hydroxyethyl(triethyl)ammonium 3-chlorosalicylate”, the “% reduction in necrotic spots” value (TMV [3]; 10 mg/L) was 15%, the “% reduction in necrotic spots” value (TMV [3]; 40 mg/L) was 26% and the “% reduction in necrotic spots” value (TMV [3]; 80 mg/L) was 37%. The “% reduction in necrotic spots” value (powdery mildew fungus [2]) was 58%.
“2-methoxyethyl(trimethyl)ammonium 3-chlorosalicylate” was tested, and the “% reduction in necrotic spots” value (TMV [1]; 10 mg/L) was 15%, the “% reduction in necrotic spots” value (TMV [1]; 40 mg/L) was 26% and the “% reduction in necrotic spots” value (TMV [1]; 80 mg/L) was 37%. The “% reduction in necrotic spots” value (powdery mildew fungus [2]) was 67%.
In the case of `C[N+](C)(C)CCO.O=C([O-])c1c(Br)ccc(Cl)c1O` [choline 3-chloro-6-bromosalicylate], the “% reduction in necrotic spots” value ([4]; 10 mg/L) is reported as 24%, the “% reduction in necrotic spots” value ([4]; 40 mg/L) is reported as 29% and the “% reduction in necrotic spots” value ([4]; 80 mg/L) is reported as 40%. For the same compound, the “Reduction in necrotic spots (white patches) compared to control” value (powdery mildew fungus [5]) was 49%.
With `C[N+](C)(C)CCO.O=C([O-])c1c(F)ccc(Cl)c1O` [choline 3-chloro-6-fluorosalicylate] the “% reduction in necrotic spots” value ([4]; 10 mg/L) was 19%, the “% reduction in necrotic spots” value ([4]; 40 mg/L) was 28% and the “% reduction in necrotic spots” value ([4]; 80 mg/L) was 47%. For the same compound, the “Reduction in necrotic spots (white patches) compared to control” value (powdery mildew fungus [5]) was 45%.
`C[N+](C)(C)CCO.O=C([O-])c1c(I)ccc(Cl)c1O` [choline 3-chloro-6-iodosalicylate] was tested, and the “Reduction in necrotic spots (white patches) compared to control” value (powdery mildew fungus [5]) was 47%.
For “ethyl(trimethyl)ammonium 3-chlorosalicylate”, the “% reduction in necrotic spots” value (TMV [1]; 10 mg/L) was 25%, the “% reduction in necrotic spots” value (TMV [1]; 40 mg/L) was 46% and the “% reduction in necrotic spots” value (TMV [1]; 80 mg/L) was 65%. For the same compound, the “% reduction in necrotic spots” value (powdery mildew fungus [2]) was 63%.
